Results as given in ChEMBL document CHEMBL1201862, “PubChem BioAssay data set” (2004).
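Method: 48-hour compound exposure of cells in 96-well plates, five concentrations, linear interpolation of endpoints. The concentration for 50% growth inhibition is given as GI50.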 Activity calls are given as the source filed them. Cut-off read from the data, not from the text of the source: active = GI50 up to about 1.1 µM and inactive = higher.

How the values were obtained:
Assay in all cases: DTP human tumour cell line panel, 48 h
CAKI-1 = system: CAKI-1
EKVX = system: EKVX
HCT-116 = system: HCT-116
HCT-15 = system: HCT-15
HL-60 = system: HL-60
HOP-62 = system: HOP-62
IGROV-1 = system: IGROV-1
M14 = system: M14
MCF7 = system: MCF7
MDA-MB-231 = system: MDA-MB-231
MDA-N = system: MDA-N
NCI-H460 = system: NCI-H460
RXF 393 = system: RXF 393
SK-MEL-28 = system: SK-MEL-28
SK-MEL-5 = system: SK-MEL-5
SNB-19 = system: SNB-19
SNB-75 = system: SNB-75
T47D = system: T47D
U-251 = system: U-251
BT-549 = system: BT-549

Structure (SMILES)	GI50 (CAKI-1)	GI50 (EKVX)	GI50 (HCT-116)	GI50 (HCT-15) [µM]	GI50 (HL-60)	GI50 (HOP-62)	GI50 (IGROV-1)	GI50 (M14)	GI50 (MCF7)	GI50 (MDA-MB-231)	GI50 (MDA-N)	GI50 (NCI-H460)	GI50 (RXF 393)	GI50 (SK-MEL-28)	GI50 (SK-MEL-5)	GI50 (SNB-19)	GI50 (SNB-75)	GI50 (T47D)	GI50 (U-251)	GI50 (BT-549)
CCn1c(=N)sc2nc3ccccc3n2c1=O	> 100 µM (inactive)	> 100 µM (inactive)	> 100 µM (inactive)	> 100	> 100 µM (inactive)	> 100 µM (inactive)	> 100 µM (inactive)	> 100 µM (inactive)	9.48 µM (inactive)	> 100 µM (inactive)	> 100 µM (inactive)	> 100 µM (inactive)	> 100 µM (inactive)	> 100 µM (inactive)	> 100 µM (inactive)	> 100 µM (inactive)	40 µM (inactive)	> 100 µM (inactive)	> 100 µM (inactive)	
O=c1oc2ccccc2c2c(=O)c3ccc(OC/C(=N/O)c4ccc(Cl)cc4)cc3oc12	10.6 µM (inactive)		11.2 µM (inactive)	7.4	9.25 µM (inactive)	15.1 µM (inactive)	31.5 µM (inactive)	14.6 µM (inactive)	5.83 µM (inactive)	20.8 µM (inactive)	3.57 µM (inactive)	11.9 µM (inactive)	2.16 µM (inactive)		5.05 µM (inactive)	14.9 µM (inactive)		29.4 µM (inactive)	9.51 µM (inactive)	
C=C1CCCCCCCCC/C=C/1SCCCSC	> 100 µM (inactive)	> 100 µM (inactive)	> 100 µM (inactive)	> 100	> 100 µM (inactive)	> 100 µM (inactive)	> 100 µM (inactive)	> 100 µM (inactive)	> 100 µM (inactive)	> 100 µM (inactive)	> 100 µM (inactive)	> 100 µM (inactive)	> 100 µM (inactive)	> 100 µM (inactive)	> 100 µM (inactive)	> 100 µM (inactive)		> 100 µM (inactive)	> 100 µM (inactive)	
O=C1c2ccccc2/N=C(/c2cc3c(cc2Cl)Sc2nccn2S3(=O)=O)OS(=O)(=O)N1c1ccccc1	35.7 µM (inactive)	30 µM (inactive)	15.5 µM (inactive)	20.2	31.3 µM (inactive)	21.7 µM (inactive)		16.9 µM (inactive)	24.6 µM (inactive)	22.7 µM (inactive)		29.8 µM (inactive)	20.8 µM (inactive)			33.7 µM (inactive)	7.4 µM (inactive)	> 100 µM (inactive)	29.2 µM (inactive)	17.8 µM (inactive)
CC(C)(C)[C@@H]1NC(=O)CN1C(=O)OCc1ccccc1		> 100 µM (inactive)	> 100 µM (inactive)	> 100	> 100 µM (inactive)	> 100 µM (inactive)	> 100 µM (inactive)	> 100 µM (inactive)	> 100 µM (inactive)	> 100 µM (inactive)		> 100 µM (inactive)	> 100 µM (inactive)	> 100 µM (inactive)	> 100 µM (inactive)	> 100 µM (inactive)	> 100 µM (inactive)	> 100 µM (inactive)	> 100 µM (inactive)	> 100 µM (inactive)
O=C(O)c1cc(/C=C/c2ccc(O)c(O)c2)ccc1O	32.7 µM (inactive)	> 100 µM (inactive)	40 µM (inactive)	> 100	30.7 µM (inactive)	> 100 µM (inactive)	> 100 µM (inactive)	45.8 µM (inactive)	23.1 µM (inactive)	> 100 µM (inactive)	34.8 µM (inactive)	> 100 µM (inactive)	28.1 µM (inactive)	> 100 µM (inactive)	> 100 µM (inactive)	> 100 µM (inactive)	> 100 µM (inactive)	> 100 µM (inactive)	> 100 µM (inactive)	
O=[N+]([O-])c1cc(-c2nnc(C34CC5CC(CC(C5)C3)C4)o2)cc([N+](=O)[O-])c1	> 100 µM (inactive)	> 100 µM (inactive)	12.3 µM (inactive)	21.1	> 100 µM (inactive)	59.4 µM (inactive)	> 100 µM (inactive)	21.5 µM (inactive)		39.2 µM (inactive)	24.4 µM (inactive)	32.4 µM (inactive)	> 100 µM (inactive)	86.1 µM (inactive)	14.1 µM (inactive)	> 100 µM (inactive)	74.6 µM (inactive)	> 100 µM (inactive)	45.5 µM (inactive)	
COc1ccc(C(=O)Nc2ccc(O)c(=O)cc2)cc1	36.9 µM (inactive)	21.4 µM (inactive)	33.1 µM (inactive)	26.9	21.3 µM (inactive)	80.9 µM (inactive)	37.9 µM (inactive)	78 µM (inactive)	21.5 µM (inactive)	42.3 µM (inactive)		15.3 µM (inactive)	13.6 µM (inactive)	22.5 µM (inactive)	41.6 µM (inactive)	36.1 µM (inactive)		< 0.01 µM (active)	38.7 µM (inactive)	38.5 µM (inactive)
